In patent publication US20120177742A1, “NANOPARTICLE AND SURFACE-MODIFIED PARTICULATE COATINGS, COATED BALLOONS, AND METHODS THEREFORE” (MICELL TECHNOLOGIES, INC., priority 2010, published 2012):
Where “and” joins values, the source holds several entries; their conditions need not be identical. Equal entries are not always repeated. Where two headings read alike, the source gives them in different places. Marks after values point to notes of the source that are not given here.

How the values were obtained:
[1] = Rapamycin coating affinity testing: distribution between solid and liquid phases with surfactant in water (UV-Vis); type: physicochemical; settings: for Cal. Rapa (Sediment) / Cal. Rapa (Supernate): calculated from UV-Vis absorbance; for Cal. Rapa (Sediment): in mg (unit assumed); for Cal. Rapa (Supernate): unit assumed; for total (% original) / total (% of original): percent recovery of initial rapamycin loading
Excerpt: One method of applying a positive surface charge to the coating is to add DMAB to the coating such that it is on its surface, at least. […] The coating is then sintered according to the RESS process. […] Care should be taken in certain embodiments to optimize the DMAB's application to the balloon and to handle the balloon thereafter to keep the DMAB from washing off. […] The initial mass of rapamycin is shown in the column labeled “Original rapa.” The supernatant (liquid phase) contains the material of interest as it is drug particles coated with the surfactant modifier. The values presented in the columns labeled “Cal. Rapa” are calculated from the UV-Vis absorbance spectrum of the sediment or supernatant respectively. The ratio of these two values determined the partition coefficient between the sediment and supernatant (reported in the column labeled “ratio”).
The initial mass of rapamycin is shown in the column labeled “Original rapa.” The supernatant (liquid phase) contains the material of interest as it is drug particles coated with the surfactant modifier. The values presented in the columns labeled “Cal. Rapa” are calculated from the UV-Vis absorbance spectrum of the sediment or supernatant respectively. The ratio of these two values determined the partition coefficient between the sediment and supernatant (reported in the column labeled “ratio”).

[2] = Sirolimus concentration in rabbit blood after inflation of two coated balloons per animal; type: in vivo
Procedure: After a 2d balloon inflation, blood samples were taken at the given time points (0 h, 6 h, 24 h).

in vivo = settings: rabbit, iliac artery wall, other: coated balloon catheter deployed in iliac arteries
Procedure: The coated balloons were sterilized and then used in a rabbit animal study. The balloons were deployed at the target sites (iliac arteries) in the rabbits in the study, two balloons per animal. […] The amount of drug per tissue was determined using a LC-MS test method. Liquid chromatography-mass spectrometry (LC-MS) was used to determine the amount of drug per tissue. Prior to LC-MS, artery samples were homogenized using an Omni hand held probe (1:99 w:v in 80:20 MeOH:2 mM Ammonium Acetate in water with 0.1% Formic Acid). The density of the artery was assumed to be 1 g/mL
Balloons were inflated for a minimum of one minute. […] The estimated time the artery was exposed to blood flow was also tracked, and refers to the amount of time after the balloon was inflated.

[3] = Study 1 balloons left uninflated in rabbit aorta, exposed to blood flow: drug lost
[4] = 1:1 Surfactant to Rapa (w/w), 10x dilution in water
[5] = 1:1 Surfactant to Rapa, 10x dilution
[6] = 1:1 Surfactant to Rapa, 10x dilution, partition between supernatant and sediment
[7] = 10:1 Surfactant to Rapa (w/w), 6x dilution in water
[8] = 10:1 Surfactant to Rapa, 6x dilution
[9] = 1:10 Surfactant to Rapa (w/w), 100x dilution in water
[10] = 1:10 Surfactant to Rapa, 100x dilution

Sediment wt [1, 4]	Cal. Rapa (Sediment) [1, 5]	Cal. Rapa (Supernate) [1, 5]	ratio super/sed [1, 6]	total (% original) [1, 5]	Sediment wt [1, 7]	ratio super/sed [1, 8]	Cal. Rapa (Sediment) [1, 8]	Cal. Rapa (Supernate) [1, 8]	total (% of original) [1, 8]	Sediment wt [1, 9]	ratio super/sed [1, 10]	Cal. Rapa (Sediment) [1, 10]	Cal. Rapa (Supernate) [1, 10]	total (% of original) [1, 10]	Molecule	further results
2.28 mg	1.9	0.59 mg	0.31	113.2%	1.9 mg	1.42	0.85	1.21 mg	110.2%						CCCCCCCCCCCCCC[N+](C)(C)CCCCCCCCCCCCCC.[Br-] [Dimethylditetradecylammonium bromide, Dimethylditetradecyl Ammonium bromide]	
7.21 mg	1.61	0.32 mg	0.20	92.8%	2.85 mg	0.30	0.94	0.28 mg	65.6%	7.9 mg	0.18	7.06	1.29 mg	78.8%	Poly Histidine	
6.31 mg	1.51	0.25 mg	0.17	88.0%	3.6 mg	0.31	1.24	0.39 mg	73.1%						CCCCCCCCCCCC[N+](CCCCCCCCCCCC)(CCCCCCCCCCCC)CCCCCCCCCCCC.[Br-] [Tetradodecylammoniumbromid, Tetradodecylammonium bromide]	
3.85 mg	1.37	0.33 mg	0.24	89.5%	3.21 mg	31.50	0.04*	1.26 mg	59.6%	8.6 mg	0.15	6.86	1.05 mg	80.2%	CCCCCCCCCCCCCCCC[N+](C)(C)CC.[Br-] [Ethylhexadecyldimethylammonium Bromide]	
3.72 mg	1.24	0.3 mg	0.24	72.6%	5.11 mg	0.46	1.1	0.51 mg	84.3%	6.5 mg	0.21	5.36	1.15 mg	66.2%	Poly-L-Arginine (average or nominal MW of about 5,000 to about 15,000 Da) [Poly Arginine 5,000-15,000]	

The next lines start with the molecule.

Molecule	Sediment wt [1, 4]	Cal. Rapa (Sediment) [1, 5]	Cal. Rapa (Supernate) [1, 5]	ratio super/sed [1, 6]	total (% original) [1, 5]	Sediment wt [1, 7]	ratio super/sed [1, 8]	Cal. Rapa (Sediment) [1, 8]	Cal. Rapa (Supernate) [1, 8]	total (% of original) [1, 8]	Sediment wt [1, 9]	ratio super/sed [1, 10]	Cal. Rapa (Sediment) [1, 10]	Cal. Rapa (Supernate) [1, 10]	total (% of original) [1, 10]	further results
CCCCCCCCCCCC[N+](C)(C)C.[Br-] [Dodecyltrimethylammonium Bromide, Dodecyltrimethyl Ammonium Bromide]	1.99 mg	1.65	0.5 mg	0.30	108.6%	2.56 mg	0.65	1.2	0.78 mg	87.6%	7.7 mg	0.20	6.6	1.33 mg	81.9%	
CCCCCCCCCCCC[N+](C)(C)CCCCCCCCCCCC.[Br-] [DMAB, didodecyldimethylammonium bromide]	2.2 mg	1.23	0.64 mg	0.52	98.4%	3.73 mg	0.83	1.23	1.02 mg	107.1%	8.52 mg	0.06	7.23	0.4 mg	79.5%	
Poly-L-Lysine (average or nominal MW of about 28,200 Da) [Poly Lysin 28,200]	4.89 mg	1.36	0.35 mg	0.26	85.9%	4.3 mg	0.11	1.2	0.13 mg	63.0%	7.4 mg	0.11	7	0.74 mg	80.2%	
Poly-L-Lysine (average or nominal MW of about 67,000 Da) [Poly Lisine 66,700]	1.85 mg	1.43	0.33 mg	0.23	93.6%	2.9 mg	0.10	1.2	0.12 mg	55.2%						
CCCC[N+](CCCC)(CCCC)CCCC.[I-] [Tetrabutylammonium iodide]	2.1 mg	1.97	0.6 mg	0.30	114.2%	2.05 mg	0.39	1.07	0.42 mg	80.1%						
CO[C@H]1C[C@@H]2CC[C@@H](C)[C@@](O)(O2)C(=O)C(=O)N2CCCC[C@H]2C(=O)O[C@H]([C@H](C)C[C@@H]2CC[C@@H](O)[C@H](OC)C2)CC(=O)[C@H](C)/C=C(\C)[C@@H](O)[C@@H](OC)C(=O)[C@H](C)C[C@H](C)/C=C/C=C/C=C/1C [sirolimus]																Est. Total Sirolimus in Blood Normalized to Human ([2]; 6 hr, based on 5 L of blood in the average human): 0.08 ng/mL and 0.07 ng/mL and 0.06 ng/mL; Est. Total Sirolimus in Blood ([2]; 6 hr, based on 56 mL per kg in rabbits): 0.5 µg and 0.4 µg and 0.3 µg; time within which drug released from balloon and/or artery was cleared from the blood ([2]; rabbit, after balloon inflation): ≤ 24 h; concentration at 0 h ([2]; rabbit, blood, other: coated balloon catheters inflated in iliac arteries, rabbit blood, 0 Hr, two coated balloons per animal, single animals and Average, read-out: Post-Inflation Conc.): 8.35 ng/mL; concentration at 6 h ([2]; rabbit, blood, other: coated balloon catheters inflated in iliac arteries, rabbit blood, 6 hr, two coated balloons per animal, single animals and Average, read-out: Post-Inflation Conc.): 2.82 ng/mL; concentration at 6 h ([2]; rabbit, whole blood, other: inflation of drug-coated balloons in iliac arteries, Est. Total Sirolimus in Blood Normalized to Human, 6 hr, based on 5 L of blood in the average human): 0.1 ng/mL; Total Sirolimus per Artery (Denuded Arteries, rabbit iliac, 0 h, artery exposed to blood flow 5 or 10 min, single arteries and Average): 7.36 µg and 4.62 µg and 5.75 µg and 4.46 µg and 3.92 µg and 4.27 µg; drug (sirolimus) transferred to artery (Study 1 balloons): 1-5%; sirolimus washed away into circulation (Study 1 balloons, 0 h): 5.4 ± 2.3 µg; concentration at 0 h (in vivo): 197000 ± 85300 ng/g; sirolimus removed from balloons before inflation ([3]; Study 1 balloons): 65.6±1.3%; average percent drug (sirolimus) lost ([3]; four Study 1 balloons left uninflated two minutes in rabbit aorta, exposed to blood flow, based on batch average UV-Vis): 65.6%
Poly-L-Arginine (average or nominal MW of about 70,000 Da) [Poly Arginine 70,000]	11.7 mg	1.49	0.73 mg	0.49	100.9%	2.81 mg	0.18	1.18	0.21 mg	72.0%	7.9 mg	0.15	6.95	1.01 mg	77.9%	
